Measured values from PubChem BioAssay (NCI).
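All cell lines were grown in 96-well plates and treated with compound for 48 hours. TGI is the concentration that stops growth completely.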

Key:
Test in all cases: NCI tumour cell line growth inhibition, 48 h
786-0 renal = tested on: 786-0 renal
A498 renal = tested on: A498 renal
A549 NSCLC = tested on: A549 NSCLC
ACHN renal = tested on: ACHN renal
CAKI-1 renal = tested on: CAKI-1 renal
CCRF-CEM leukemia = tested on: CCRF-CEM leukemia
COLO 205 colon = tested on: COLO 205 colon
DMS 114 small cell lung = tested on: DMS 114 small cell lung
DMS 273 small cell lung = tested on: DMS 273 small cell lung
EKVX NSCLC = tested on: EKVX NSCLC
HCC-2998 colon = tested on: HCC-2998 colon
HCT-116 colon = tested on: HCT-116 colon
HCT-15 colon = tested on: HCT-15 colon
HL-60(TB) leukemia = tested on: HL-60(TB) leukemia
HOP-18 NSCLC = tested on: HOP-18 NSCLC
HOP-62 NSCLC = tested on: HOP-62 NSCLC
HOP-92 NSCLC = tested on: HOP-92 NSCLC
HT29 colon = tested on: HT29 colon
IGROV1 ovarian = tested on: IGROV1 ovarian
K-562 leukemia = tested on: K-562 leukemia
KM12 colon = tested on: KM12 colon
KM20L2 colon = tested on: KM20L2 colon
LOX IMVI melanoma = tested on: LOX IMVI melanoma
LXFL 529 NSCLC = tested on: LXFL 529 NSCLC
M14 melanoma = tested on: M14 melanoma
M19-MEL melanoma = tested on: M19-MEL melanoma
MALME-3M melanoma = tested on: MALME-3M melanoma
MOLT-4 leukemia = tested on: MOLT-4 leukemia
NCI-H226 lung = tested on: NCI-H226 lung
NCI-H23 lung = tested on: NCI-H23 lung
NCI-H460 lung = tested on: NCI-H460 lung
NCI-H522 lung = tested on: NCI-H522 lung
OVCAR-3 ovarian = tested on: OVCAR-3 ovarian
OVCAR-4 ovarian = tested on: OVCAR-4 ovarian
OVCAR-5 ovarian = tested on: OVCAR-5 ovarian
OVCAR-8 ovarian = tested on: OVCAR-8 ovarian
RPMI-8226 leukemia = tested on: RPMI-8226 leukemia
RXF 393 renal = tested on: RXF 393 renal
RXF-631 renal = tested on: RXF-631 renal
SF-268 CNS = tested on: SF-268 CNS
SF-295 CNS = tested on: SF-295 CNS
SF-539 CNS = tested on: SF-539 CNS
SK-MEL-2 melanoma = tested on: SK-MEL-2 melanoma
SK-MEL-28 melanoma = tested on: SK-MEL-28 melanoma
SK-MEL-5 melanoma = tested on: SK-MEL-5 melanoma
SK-OV-3 ovarian = tested on: SK-OV-3 ovarian
SN12C renal = tested on: SN12C renal
SNB-19 CNS = tested on: SNB-19 CNS
SNB-75 CNS = tested on: SNB-75 CNS
SNB-78 CNS = tested on: SNB-78 CNS
SW-620 colon = tested on: SW-620 colon
TK-10 renal = tested on: TK-10 renal
U251 CNS = tested on: U251 CNS
UACC-257 melanoma = tested on: UACC-257 melanoma
UACC-62 melanoma = tested on: UACC-62 melanoma
UO-31 renal = tested on: UO-31 renal
XF 498 CNS = tested on: XF 498 CNS

Question: `COc1ccc(-c2cc(=O)c3ccccc3o2)cc1N` was tested. Which TGI (786-0 renal) did it give?
Answer: > 100 µM

Question: What about the TGI (A498 renal) of the same compound?
Answer: > 100 µM

Question: What about the TGI (A549 NSCLC) of the same compound?
Answer: > 100 µM

Question: And the TGI (ACHN renal)?
Answer: > 100 µM

Question: And the TGI (CAKI-1 renal)?
Answer: > 100 µM

Question: What about the TGI (CCRF-CEM leukemia) of the same compound?
Answer: > 100 µM

Question: What about the TGI (COLO 205 colon) of the same compound?
Answer: > 100 µM

Question: What about the TGI (DMS 114 small cell lung) of the same compound?
Answer: > 100 µM

Question: What about the TGI (DMS 273 small cell lung) of the same compound?
Answer: > 100 µM

Question: What about the TGI (EKVX NSCLC) of the same compound?
Answer: > 100 µM

Question: What about the TGI (HCC-2998 colon) of the same compound?
Answer: > 100 µM

Question: And the TGI (HCT-116 colon)?
Answer: > 100 µM

Question: What about the TGI (HCT-15 colon) of the same compound?
Answer: > 100 µM

Question: What about the TGI (HL-60(TB) leukemia) of the same compound?
Answer: 47.9 µM

Question: What about the TGI (HOP-18 NSCLC) of the same compound?
Answer: > 100 µM

Question: And the TGI (HOP-62 NSCLC)?
Answer: > 100 µM

Question: And the TGI (HOP-92 NSCLC)?
Answer: > 100 µM

Question: And the TGI (HT29 colon)?
Answer: > 100 µM

Question: What about the TGI (IGROV1 ovarian) of the same compound?
Answer: > 100 µM

Question: And the TGI (K-562 leukemia)?
Answer: > 100 µM

Question: What about the TGI (KM12 colon) of the same compound?
Answer: > 100 µM

Question: And the TGI (KM20L2 colon)?
Answer: > 100 µM

Question: What about the TGI (LOX IMVI melanoma) of the same compound?
Answer: > 100 µM

Question: What about the TGI (LXFL 529 NSCLC) of the same compound?
Answer: > 100 µM

Question: What about the TGI (M14 melanoma) of the same compound?
Answer: > 100 µM

Question: And the TGI (M19-MEL melanoma)?
Answer: > 100 µM

Question: And the TGI (MALME-3M melanoma)?
Answer: > 100 µM

Question: And the TGI (MOLT-4 leukemia)?
Answer: > 100 µM

Question: What about the TGI (NCI-H226 lung) of the same compound?
Answer: > 100 µM

Question: What about the TGI (NCI-H23 lung) of the same compound?
Answer: > 100 µM

Question: What about the TGI (NCI-H460 lung) of the same compound?
Answer: > 100 µM

Question: What about the TGI (NCI-H522 lung) of the same compound?
Answer: 77.6 µM

Question: What about the TGI (OVCAR-3 ovarian) of the same compound?
Answer: > 100 µM

Question: And the TGI (OVCAR-4 ovarian)?
Answer: > 100 µM

Question: What about the TGI (OVCAR-5 ovarian) of the same compound?
Answer: > 100 µM

Question: And the TGI (OVCAR-8 ovarian)?
Answer: > 100 µM

Question: What about the TGI (RPMI-8226 leukemia) of the same compound?
Answer: > 100 µM

Question: And the TGI (RXF 393 renal)?
Answer: > 100 µM

Question: What about the TGI (RXF-631 renal) of the same compound?
Answer: > 100 µM

Question: And the TGI (SF-268 CNS)?
Answer: > 100 µM

Question: What about the TGI (SF-295 CNS) of the same compound?
Answer: > 100 µM

Question: What about the TGI (SF-539 CNS) of the same compound?
Answer: > 100 µM

Question: And the TGI (SK-MEL-2 melanoma)?
Answer: > 100 µM

Question: What about the TGI (SK-MEL-28 melanoma) of the same compound?
Answer: > 100 µM

Question: And the TGI (SK-MEL-5 melanoma)?
Answer: > 100 µM

Question: What about the TGI (SK-OV-3 ovarian) of the same compound?
Answer: > 100 µM

Question: What about the TGI (SN12C renal) of the same compound?
Answer: > 100 µM

Question: And the TGI (SNB-19 CNS)?
Answer: > 100 µM

Question: What about the TGI (SNB-75 CNS) of the same compound?
Answer: 93.2 µM

Question: What about the TGI (SNB-78 CNS) of the same compound?
Answer: > 100 µM

Question: What about the TGI (SW-620 colon) of the same compound?
Answer: > 100 µM

Question: What about the TGI (TK-10 renal) of the same compound?
Answer: > 100 µM

Question: What about the TGI (U251 CNS) of the same compound?
Answer: > 100 µM

Question: What about the TGI (UACC-257 melanoma) of the same compound?
Answer: > 100 µM

Question: What about the TGI (UACC-62 melanoma) of the same compound?
Answer: > 100 µM

Question: What about the TGI (UO-31 renal) of the same compound?
Answer: > 100 µM

Question: And the TGI (XF 498 CNS)?
Answer: 91.1 µM
